Molecular target: FGFR3 (Homo sapiens, UniProt P22607)
Experiment: Kinase panel profiling
Assay type: biochemical

Sequence of FGFR3 (P22607 23-806): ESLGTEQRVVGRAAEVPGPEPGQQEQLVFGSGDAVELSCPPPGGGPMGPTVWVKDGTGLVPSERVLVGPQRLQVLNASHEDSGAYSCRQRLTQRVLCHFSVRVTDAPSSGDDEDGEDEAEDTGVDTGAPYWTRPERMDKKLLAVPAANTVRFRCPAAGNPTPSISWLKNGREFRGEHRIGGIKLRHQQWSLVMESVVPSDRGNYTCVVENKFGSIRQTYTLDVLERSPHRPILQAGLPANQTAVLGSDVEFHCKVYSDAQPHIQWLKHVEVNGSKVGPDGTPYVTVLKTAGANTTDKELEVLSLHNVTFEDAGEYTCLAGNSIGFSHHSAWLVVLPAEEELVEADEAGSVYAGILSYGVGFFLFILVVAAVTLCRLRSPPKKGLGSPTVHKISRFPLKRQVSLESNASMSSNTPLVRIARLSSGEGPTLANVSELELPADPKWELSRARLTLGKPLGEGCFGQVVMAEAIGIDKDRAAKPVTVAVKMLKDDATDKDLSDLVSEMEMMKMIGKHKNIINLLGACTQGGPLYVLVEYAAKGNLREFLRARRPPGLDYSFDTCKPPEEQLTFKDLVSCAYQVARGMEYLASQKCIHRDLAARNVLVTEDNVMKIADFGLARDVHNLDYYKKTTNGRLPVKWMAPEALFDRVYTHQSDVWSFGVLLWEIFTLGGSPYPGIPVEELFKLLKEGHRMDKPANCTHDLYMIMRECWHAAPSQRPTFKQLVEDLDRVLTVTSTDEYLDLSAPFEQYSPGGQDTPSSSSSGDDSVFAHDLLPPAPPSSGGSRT

O=S(=O)(c1cn(CCF)cn1)n1ccc2ncc(-c3cn[nH]c3)nc21 [Compound 13, 5-((1-(2-fluoroethyl)-1H-imidazol-4-yl)sulfonyl)-3-(1H-pyrazol-4-yl)-5H-pyrrolo[2,3-b]pyrazine]
inhibition at 0.01 µM (10 nM): 42.9% | inhibition at 0.1 µM (100 nM): 79% | inhibition at 1 µM (1000 nM): 88.9%

Reference: PMC6017193, “Structure-Based Discovery of a Series of 5H-Pyrrolo[2,3-b]pyrazine FGFR Kinase Inhibitors” (Molecules : A Journal of Synthetic Chemistry and Natural …, 2018)
